Data: US20150031128A1, “CULTURE MEDIUM FOR EUKARYOTIC CELLS” (Friesland Brands B.V., priority 2012, published 2015)
Peptide text beside a SMILES is read from it.

Columns and labels:
[1] = system: IgG expressing CHO cell line (CHO-2: ATCC CRL 11397, producing IgG4); test: Specific IgG production of IgG expressing CHO cells in supplemented chemically defined medium (sandwich ELISA / AUC); format: cell-based, Chinese hamster; conditions: ratio of cumulative IgG production (mg/ml) and AUC at day 11
Protocol: (§1) The cell culture assay was carried out in commercially available IS CHO-CD medium (Irvine Scientific, Cat. No. 91119). To this media, L-Glutamine (2 mM), pluronic acid, hypoxanthine (100 μM) and thymidine (15 μM) were added. Penicillin and streptomycin were added to prevent any bacterial growth during the growth assay. The media was supplemented with sodium-L-lactate, methyl-L-3-phenyl lactate, mucic acid, D-chiro-inositol, ferulic acid, syringic acid, adenine (A2786) and trigonelline, all purchased from Sigma Aldrich, Germany, in varying concentrations (see Table 2). The supplemented medium was mixed with a vortex mixture, filtered using a 0.22 μm filter and subsequently used in a growth assay.
(§2) An IgG expressing CHO cell line was used (CHO-2: ATCC CRL 11397, producing IgG4). The cell lines were grown in the adherent conditions for a few passages and once confluent, they were transferred to animal-free conditions in the supplemented media described in Example 2.
(§3) To measure growth and production curves, Chinese hamster ovary (CHO) cells were grown in suspension culture in baffled flasks. 20×10^6 cells were transferred in 25 ml media to the baffled flasks. Chemically defined media with and without added cell culture medium components were tested. No fresh media was added during the growth assay. Cells were counted using the CEDEX HiRes cell counter (Innovatis, Germany). The cell counts were used to calculate the area under the growth curve and represented as dimensionless area under curve (AUC) values as described in detail in Ling, C. X, Huang, J. and Zhang, H. (2003), International joint conferences on artificial intelligence, pp. 329-341. The supernatant samples were taken every alternate days for the IgG production measurements. IgG production was measured using sandwich ELISA method. The specific IgG production was calculated by taking the ratio of cumulative IgG production (in mg/ml) and AUC measured at day 11 of the growth assay. The cells were visually inspected using a phase contrast microscope (Zeiss Axiovert 25, 400× magnification). […] Only single cells were observed and no aggregation of cells was seen. The cell shape was also positively affected. […] This was in contrast with the observation that a lot of cell aggregates were present in CHO cell cultures grown in chemically defined medium without cell culture medium components.
(§4) Table 2A and 2B. Specific IgG production and cell growth of CHO cells in chemically defined cell culture medium (see Example 5 for details) with added cell culture medium components of the invention in varying concentrations. Production and growth data in chemically defined cell culture medium without added alpha-hydroxy acid derivatives, as well as in chemically defined cell culture medium supplemented with soy protein hydrolysate (0.4% w/v) and with fetal calf serum (Gibco-Invitrogen; 5% v/v) are provided for comparison.

[2] = system: IgG expressing CHO cell line (CHO-2: ATCC CRL 11397, producing IgG4); test: Cell growth (area under growth curve) of CHO cells in supplemented chemically defined medium; format: cell-based, Chinese hamster; conditions: dimensionless AUC
Protocol: as §1, §2, §3, §4

[3] = system: antibody production in cell culture; test: Correlation (linear regression, SLOPE) of antibody production with relative concentration of components in plant protein hydrolysates; format: cell-based; conditions: linear regression over plant protein hydrolysates; higher positive slope = higher importance
Protocol: Commercial plant protein hydrolysates like SE50MAF-UF, WGE80M-UF, CNE80M-UF, PCE80B obtained from FrieslandCampina Domo, USA were analysed by Liquid chromatography/Mass Spectrometry (LC/MS, LC/MS2) using a Waters Acquity UPLC and a Thermo-Finnigan LTQ mass spectrometer, which consists of an electrospray ionization (ESI) source and linear ion-trap (LIT) mass analyzer. The sample extract was split into two aliquots, dried, then reconstituted in acidic or basic LC-compatible solvents. One aliquot was analyzed using acidic positive ion optimized conditions and the other using basic negative ion optimized conditions in two independent injections using separate dedicated columns. […] Using the SLOPE function of Microsoft Excel 2003, the correlation between antibody production and relative concentration of the components was calculated, the results of which are presented in Table 1 below. The higher the positive slope, the higher the importance of a biochemical component in the cell culture. p-values, also calculated using MS Excel's correlation regression function, represent the significance of the values, with the lower the p-value (all between 0 and 1), the more significant the measured value.

[4] = component added at 1 × 10^−1 % w/v
[5] = component added at 1 × 10^−2 % w/v
[6] = component added at 1 × 10^−3 % w/v

| Structure (SMILES) | Specific IgG production after 11 days [1, 4] | Specific IgG production after 11 days [1, 5] | Specific IgG production after 11 days [1, 6] | Cell growth (area under curve) after 14 days [2, 4] | Cell growth (area under curve) after 14 days [2, 5] | Cell growth (area under curve) after 14 days [2, 6] | SLOPE (correlation of antibody production and relative concentration of cell culture medium component) [3] |
| --- | --- | --- | --- | --- | --- | --- | --- |
| OC1C(O)C(O)C(O)C(O)C1O [D-Chiro-inositol, D-chiro-inositol] | 60.22 | 93.05 | 102.40 | 64.24 | 51.22 | 50.18 | – |
| C[C@H](O)C(=O)[O-].[Na+] [Sodium-L-lactate, sodium-L-lactate] | 93.77 | – | – | 61.83 | – | – | – |
| COc1cc(C(=O)O)cc(OC)c1O [Syringic Acid, 4-hydroxy-3,5-dimethoxybenzoic acid] | 96.8 | 93.2 | 77.3 | 60.0 | 58.8 | 53.4 | – |
| Nc1ncnc2nc[nH]c12 [adenine] | – | 100.8 | 82.4 | – | – | – | – |
| O=C(O)CC[C@@H]1NC(=O)CNC1=O [cyclo(Gly-Glu)] | – | – | – | – | – | – | 1584.22 |
| COc1cc(/C=C/C(=O)O)ccc1O [ferulic acid, (E)-3-(4-hydroxy-3-methoxy-phenyl)prop-2-enoic acid] | 60.5 | 86.3 | 124.2 | 66.3 | 51.3 | 49.7 | – |
| C[n+]1cccc(C(=O)[O-])c1 [trigonelline, 1-methylpyridinium-3-carboxylate] | 83.65 | 75.68 | – | – | – | – | – |
| CC(C)[C@H](N)C(=O)N[C@@H](CCC(=O)O)C(=O)O [valinylglutamate] (H-Val-Glu-OH) | – | – | – | – | – | – | 2064.16 |
